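Step 1: Grow cells in 96-well plates. Step 2: Expose to compound for 48 hours at 5 concentrations. Step 3: Interpolate endpoints linearly; if unreached, use highest concentration. The concentration for full growth arrest is given as TGI.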
Legend:
Assay in all cases: NCI-60 cell line screen, 48 h
[1] = tested on: 786-0 renal
[2] = tested on: A549 NSCLC
[3] = tested on: BT-549 breast
[4] = tested on: CAKI-1 renal
[5] = tested on: CCRF-CEM leukemia
[6] = tested on: HCC-2998 colon
[7] = tested on: HCT-116 colon
[8] = tested on: HS 578T breast
[9] = tested on: HT29 colon
[10] = tested on: K-562 leukemia
[11] = tested on: MCF7 breast
[12] = tested on: PC-3 prostate
[13] = tested on: SF-268 CNS
[14] = tested on: SNB-19 CNS
[15] = tested on: SW-620 colon
[16] = tested on: TK-10 renal
[17] = tested on: OVCAR-3 ovarian

Compound	TGI [1] [µM]	TGI [2] [µM]	TGI [3] [µM]	TGI [4] [µM]	TGI [5] [µM]	TGI [6] [µM]	TGI [7] [µM]	TGI [8] [µM]	TGI [9] [µM]	TGI [10] [µM]	TGI [11] [µM]	TGI [12] [µM]	TGI [13] [µM]	TGI [14] [µM]	TGI [15] [µM]	TGI [16] [µM]	TGI [17] [µM]
CN(C)c1ccc(/C=C/C(=O)c2cc(C(C)(C)C)c(O)c(C(C)(C)C)c2)cc1	8.03	> 100	> 100	> 58.5	> 25.7	3.67	24.4	> 100	> 30.2	> 100	> 100	> 100	> 52.1	> 100	> 100	> 43.1	–
O=C1c2ccccc2N=C(c2cc3c(cc2Cl)Sc2nccn2S3(=O)=O)OS(=O)(=O)N1c1ccccc1	> 100	> 100	61.1	> 100	41.7	36	31.5	> 100	61	74.5	81.5	> 100	> 100	> 100	> 100	> 100	> 100
COc1ccccc1C1C2=C(COC2=O)Oc2cc3c(cc21)OCO3 (stereo unspecified)	28	> 100	> 100	> 100	16.8	> 37.6	> 100	13.3	8.53	> 100	> 89.9	> 100	85.8	72.3	> 100	> 90.5	16.7
c1ccc(CN2CCC(=NN3CCCCC3)CC2)cc1	> 100	> 100	> 100	> 100	> 100	> 100	> 100	> 100	> 100	> 100	> 100	> 100	> 100	> 100	> 100	> 100	> 100
COc1ccccc1N1CCN(CCCCNC(=O)c2ccc([N+](=O)[O-])o2)CC1	21.4	19.5	14.7	40.5	58.2	5.71	24.6	41	9.92	> 60.5	22.2	39.8	35.4	25.5	> 66	18.3	17.8
Cc1ccc(C2(O)c3ccccc3C(=O)N(C)C2(O)c2ccc(C)cc2)cc1 (stereo unspecified)	> 100	> 100	> 100	> 100	39.3	> 100	> 100	46.9	> 100	> 100	> 100	> 100	50.6	64.1	> 100	> 100	> 100
Cc1ccc(Nc2c3c(c(C#N)c4nc5ccccc5n24)CCCC3)cc1	> 100	> 100	> 100	> 100	31.6	94.9	36.8	> 100	37.2	> 100	> 100	87.2	> 100	> 100	61	> 100	34.6
O=C(Nc1ccccc1)c1cc2ccccc2c(N=Nc2cccc([N+](=O)[O-])c2)c1O	> 100	> 100	> 100	> 100	> 100	> 100	> 100	99.1	> 100	> 100	> 100	> 100	> 100	97.2	> 100	> 100	> 100
O=[N+]([O-])c1cc(C2(N3CCCCC3)CCCCC2)sc1Br	39.2	33.7	24.3	15.6	7.33	3.41	35.5	> 58.5	15.4	14.1	8.6	13.1	28.1	27.6	21.3	6.61	7.4
Clc1ccc(Nc2ncco2)cc1Cl	> 10	> 10	> 10	> 10	> 10	> 10	> 10	> 10	> 10	> 10	> 10	> 10	> 10	> 10	> 10	> 10	> 10
Cc1cccc2c(N)c3cccc(C(=O)NCC[N+](C)(C)Cc4ccc([N+](=O)[O-])n4C)c3nc12	> 63.9	> 52.2	> 71.3	> 51.2	41.8	55.8	68.3	41	59	> 31.6	> 62.5	> 75.2	61.9	> 100	> 82.2	> 100	> 73.1

Source: PubChem BioAssay (NCI)
